Laboratory results taken from US7250413B2, “C-25 carbamate rifamycin derivatives with activity against drug-resistant microbes” (Cumbre Pharmaceuticals Inc., priority 2004, dated 2007).
Values after ≈ are worked out from the molar mass of the structure shown.

Legend:
Assay in all cases: MIC, microbroth dilution
Assay type in all cases: cell-based
[1] = test system: Mycobacterium smegmatis ATCC700084; conditions: Mycolicibacterium smegmatis, ATCC700084; rifS; Middlebrook Broth plus ADC Enrichment, 37° C.; read-out: MIC
Experimental: (§1) Representative compounds were assayed for antimicrobial activity as follows: Minimum Inhibitory Concentrations (“MICs”) were determined by the microbroth dilution method as per NCCLS guidelines (National Committee for Clinical Laboratory Standards, 2000), except that all growth incubations were conducted at 37° C. Bacterial cultures were tested in the following bacteriological media: S. aureus, S. epidermidis, and E. coli in Cation-Adjusted Mueller-Hinton Broth, S. pneumoniae in THY Broth supplemented with 1 mg/mL catalase under 5% CO2 atmosphere, S. pyogenes in THY Broth, E. faecalis in BHI Broth, H. influenzae in BHI Broth supplemented with 0.75 μL of 1 mg/mL NAD and 150 μL of 1 mg/ml hematin per 5 mL, and M smegmatis in Middlebrook Broth plus ADC Enrichment.

[2] = test system: Enterococcus faecalis ATCC29212; conditions: rifS, BHI Broth, 37° C., read-out: MIC
Experimental: as §1

[3] = test system: Staphylococcus aureus ATCC29213; conditions: rifS, Cation-Adjusted Mueller-Hinton Broth, 37° C., read-out: MIC
Experimental: as §1

Row | MIC [1] [mg/L] | MIC [2] [mg/L] | MIC [3] [mg/L] | Structure (SMILES)
1 | 0.063 to 31 | 0.25 to 62 (≈ 0.212 to 52.6 µM) | 0.002 to 1.95 (≈ 0.0017 to 1.65 µM) | CO[C@H]1/C=C/O[C@@]2(C)Oc3c(C)c(O)c4c(c3C2=O)C(=O)C(N2CCOCC2)=C(NC(=O)/C(C)=C\C=C\[C@H](C)[C@H](O)[C@@H](C)[C@@H](O)[C@@H](C)[C@H](OC(=O)N2CCC(N3CCN(c5cc6c(cc5F)c(=O)c(C(=O)O)cn6C5CC5)CC3)CC2)[C@@H]1C)C4=O [Example 57]
2 | 0.063 to 31 | 0.25 to 62 (≈ 0.204 to 50.7 µM) | 0.002 to 1.95 (≈ 0.00163 to 1.59 µM) | COc1c(N2CCN(C(=O)C3CN(C(=O)O[C@H]4[C@H](C)[C@H](O)[C@H](C)[C@@H](O)[C@@H](C)/C=C/C=C(/C)C(=O)NC5=C(N6CCOCC6)C(=O)c6c(c(O)c(C)c7c6C(=O)[C@@](C)(O/C=C/[C@H](OC)[C@H]4C)O7)C5=O)C3)C(C)C2)c(F)cc2c(=O)c(C(=O)O)cn(C3CC3)c12 (stereo partly drawn) [Example 65]
3 | 0.063 to 31 | 0.25 to 62 (≈ 0.221 to 54.8 µM) | 0.002 to 1.95 (≈ 0.00177 to 1.72 µM) | CO[C@H]1/C=C/O[C@@]2(C)Oc3c(C)c(O)c4c(c3C2=O)C(=O)C(N2CCOCC2)=C(NC(=O)/C(C)=C\C=C\[C@H](C)[C@H](O)[C@@H](C)[C@@H](O)[C@@H](C)[C@H](OC(=O)NC2CCN(c3c(F)cc5c(=O)c(C(=O)O)cn(C6CC6)c5c3Cl)C2)[C@@H]1C)C4=O (stereo partly drawn) [Example 67, 25-O-Desacetyl-(carbonyl-N-7-(3-amino-pyrrolidin-1-yl)-8-chloro-1-cyclopropyl-6-fluoro-4-oxo-1,4-dihydro-quinoline-3-carboxylic acid) 3-morpholino rifamycin S]
4 | 0.063 to 31 | 0.25 to 62 (≈ 0.28 to 69.4 µM) | 0.002 to 1.95 (≈ 0.00224 to 2.18 µM) | CO[C@H]1/C=C/O[C@@]2(C)Oc3c(C)c(O)c4c(c3C2=O)C(=O)C(N2CCOCC2)=C(NC(=O)/C(C)=C\C=C\[C@H](C)[C@H](O)[C@@H](C)[C@@H](O)[C@@H](C)[C@H](OC(=O)NCCC2CCCN2C)[C@@H]1C)C4=O (stereo partly drawn) [Example 31, 25-O-Desacetyl-(carbonyl-2-(1-methyl-pyrrolidin-2-yl)-ethylamine) 3-morpholino rifamycin S]
5 | 0.063 to 31 | 0.25 to 62 (≈ 0.265 to 65.7 µM) | 0.002 to 1.95 (≈ 0.00212 to 2.07 µM) | CO[C@H]1/C=C/O[C@@]2(C)Oc3c(C)c(O)c4c(c3C2=O)C(=O)C(N2CCOCC2)=C(NC(=O)/C(C)=C\C=C\[C@H](C)[C@H](O)[C@@H](C)[C@@H](O)[C@@H](C)[C@H](OC(=O)N(CCN(C)C)Cc2ccccc2)[C@@H]1C)C4=O [Example 37, 25-O-Desacetyl-(carbonyl-N′-benzyl-N,N-dimethyl-ethane-1,2-diamino) 3-morpholino rifamycin S]
6 | 0.063 to 31 | 0.25 to 62 (≈ 0.266 to 66 µM) | 0.002 to 1.95 (≈ 0.00213 to 2.07 µM) | CO[C@H]1/C=C/O[C@@]2(C)Oc3c(C)c(O)c4c(c3C2=O)C(=O)C(N2CCOCC2)=C(NC(=O)/C(C)=C\C=C\[C@H](C)[C@H](O)[C@@H](C)[C@@H](O)[C@@H](C)[C@H](OC(=O)NCc2cccc(C(F)(F)F)c2)[C@@H]1C)C4=O [Example 13, 25-O-Desacetyl-(carbonyl-1-(3-trifluoromethylbenzylamino)) 3-morpholino rifamycin S]
7 | 0.063 to 31 | 0.25 to 62 (≈ 0.298 to 74 µM) | 0.002 to 1.95 (≈ 0.00239 to 2.33 µM) | CO[C@H]1/C=C/O[C@@]2(C)Oc3c(C)c(O)c4c(c3C2=O)C(=O)C(N2CCOCC2)=C(NC(=O)/C(C)=C\C=C\[C@H](C)[C@H](O)[C@@H](C)[C@@H](O)[C@@H](C)[C@H](OC(=O)NCC(C)C)[C@@H]1C)C4=O [Example 7, 25-O-Desacetyl-(1-carbonyl-isobutylamino) 3-morpholino rifamycin S]
8 | 0.063 to 31 | 0.25 to 62 (≈ 0.204 to 50.7 µM) | 0.002 to 1.95 (≈ 0.00163 to 1.59 µM) | COc1c(N2CCCC(NC3CCN(C(=O)O[C@H]4[C@H](C)[C@H](O)[C@H](C)[C@@H](O)[C@@H](C)/C=C/C=C(/C)C(=O)NC5=C(N6CCOCC6)C(=O)c6c(c(O)c(C)c7c6C(=O)[C@@](C)(O/C=C/[C@H](OC)[C@H]4C)O7)C5=O)CC3)C2)c(F)cc2c(=O)c(C(=O)O)cn(C3CC3)c12 (stereo partly drawn) [Example 59]
